Where “and” joins values, the source holds several entries; their conditions need not be identical. Equal entries are not always repeated. Toxic doses and inconclusive results are not listed.
Tested on: CD2F1 mice, L1210 leukemia ip, survival T/C
Assay: NCI In Vivo Anticancer Drug Screen. Data for tumor model L1210 Leukemia (intraperitoneal) in CD2F1 (CDF1) mice
Details: higher = longer survival
Summary of the method: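 Read-out first: treated-group measurement over vehicle-control measurement, expressed as a ratio. Animals bore a transplanted tumor line and were dosed with compound or vehicle.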

[1] = endpoint: mean survival time, dose: 75.0 mg/kg/injection, schedule: Q01DX001 (ip), vehicle: saline
[2] = endpoint: mean survival time, dose: 150.0 mg/kg/injection, schedule: Q01DX001 (ip), vehicle: saline
[3] = endpoint: mean survival time, dose: 100.0 mg/kg/injection, schedule: Q01DX009 (ip), vehicle: saline with Tween-80
[4] = endpoint: mean survival time, dose: 200.0 mg/kg/injection, schedule: Q01DX009 (ip), vehicle: saline with Tween-80
[5] = endpoint: mean survival time, dose: 400.0 mg/kg/injection, schedule: Q01DX009 (ip), vehicle: saline with Tween-80
[6] = endpoint: mean survival time, dose: 12.5 mg/kg/injection, schedule: Q01DX005 (ip), vehicle: distilled water + Tween-80
[7] = endpoint: mean survival time, dose: 25.0 mg/kg/injection, schedule: Q01DX005 (ip), vehicle: distilled water + Tween-80
[8] = endpoint: mean survival time, dose: 50.0 mg/kg/injection, schedule: Q01DX005 (ip), vehicle: distilled water + Tween-80
[9] = endpoint: mean survival time, dose: 100.0 mg/kg/injection, schedule: Q01DX005 (ip), vehicle: distilled water + Tween-80
[10] = endpoint: mean survival time, dose: 200.0 mg/kg/injection, schedule: Q01DX005 (ip), vehicle: distilled water + Tween-80
[11] = endpoint: mean survival time, dose: 100.0 mg/kg/injection, schedule: Q04DX002 (ip), vehicle: saline with Tween-80
[12] = endpoint: mean survival time, dose: 200.0 mg/kg/injection, schedule: Q04DX002 (ip), vehicle: saline with Tween-80
[13] = endpoint: mean survival time, dose: 400.0 mg/kg/injection, schedule: Q04DX002 (ip), vehicle: saline with Tween-80
[14] = endpoint: mean survival time, dose: 50.0 mg/kg/injection, schedule: Q01DX009 (ip), vehicle: saline with Tween-80
[15] = endpoint: mean survival time, dose: 100.0 mg/kg/injection, schedule: Q01DX009 (ip), vehicle: Klucel (hydroxypropylcellulose) (HPC)
[16] = endpoint: mean survival time, dose: 200.0 mg/kg/injection, schedule: Q01DX009 (ip), vehicle: Klucel (hydroxypropylcellulose) (HPC)
[17] = endpoint: mean survival time, dose: 100.0 mg/kg/injection, schedule: Q01DX001 (ip), vehicle: saline with Tween-80
[18] = endpoint: mean survival time, dose: 200.0 mg/kg/injection, schedule: Q01DX001 (ip), vehicle: saline with Tween-80
[19] = endpoint: mean survival time, dose: 400.0 mg/kg/injection, schedule: Q01DX001 (ip), vehicle: saline with Tween-80
[20] = endpoint: mean survival time, dose: 50.0 mg/kg/injection, schedule: Q01DX009 (ip), vehicle: saline
[21] = endpoint: mean survival time, dose: 50.0 mg/kg/injection, schedule: Q04DX002 (ip), vehicle: saline with Tween-80
[22] = endpoint: mean survival time, dose: 100.0 mg/kg/injection, schedule: Q04DX003 (ip), vehicle: saline with Tween-80
[23] = endpoint: mean survival time, dose: 200.0 mg/kg/injection, schedule: Q04DX003 (ip), vehicle: saline with Tween-80
[24] = endpoint: mean survival time, dose: 400.0 mg/kg/injection, schedule: Q04DX003 (ip), vehicle: saline with Tween-80
[25] = endpoint: mean survival time, dose: 400.0 mg/kg/injection, schedule: Q01DX009 (ip), vehicle: Klucel (hydroxypropylcellulose) (HPC)

C[C@@H]1CC[C@]2(C)CC[C@]3(C)C(=CC[C@@H]4[C@@]5(C)CC[C@@H](OC(=O)c6ccc(O)cc6)C(C)(C)[C@@H]5C[C@H](O)[C@]43C)[C@@H]2[C@H]1C(=O)O
T/C (endpoint: median survival time, dose: 0.06 mg/kg/injection, schedule: Q01DX009 (ip), vehicle: saline with Tween-80): 103 % of control
T/C (endpoint: median survival time, dose: 0.12 mg/kg/injection, schedule: Q01DX009 (ip), vehicle: saline with Tween-80): 111 % of control
T/C (endpoint: median survival time, dose: 0.25 mg/kg/injection, schedule: Q01DX009 (ip), vehicle: saline with Tween-80): 114 % of control
T/C (endpoint: median survival time, dose: 0.5 mg/kg/injection, schedule: Q01DX009 (ip), vehicle: saline with Tween-80): 123 % of control
T/C (endpoint: median survival time, dose: 1.0 mg/kg/injection, schedule: Q01DX009 (ip), vehicle: saline with Tween-80): 107 % of control

CO/N=C(/c1ccccc1)c1cc[n+](C)cc1
T/C (endpoint: mean survival time, dose: 37.5 mg/kg/injection, schedule: Q04DX003 (ip), vehicle: saline): 100 % of control
T/C [1]: 95 % of control
T/C (endpoint: mean survival time, dose: 75.0 mg/kg/injection, schedule: Q04DX003 (ip), vehicle: saline): 96 % of control
T/C [2]: 100 % of control

CC(O)CC1CCCC(CC(C)O)N1 (stereo unspecified)
T/C (endpoint: mean survival time, dose: 5.0 mg/kg/injection, schedule: Q01DX001 (ip), vehicle: saline): 103 % of control
T/C (endpoint: mean survival time, dose: 10.0 mg/kg/injection, schedule: Q01DX001 (ip), vehicle: saline): 97 % of control
T/C (endpoint: mean survival time, dose: 20.0 mg/kg/injection, schedule: Q01DX001 (ip), vehicle: saline): 103 % of control
T/C (endpoint: mean survival time, dose: 40.0 mg/kg/injection, schedule: Q01DX001 (ip), vehicle: saline): 105 % of control
T/C [1]: 98 % of control
T/C (endpoint: mean survival time, dose: 300.0 mg/kg/injection, schedule: Q01DX001 (ip), vehicle: saline): 102 % of control

NC(=O)NC1CCCCCC1
T/C [3]: 102 % of control
T/C [4]: 109 % of control
T/C [5]: 100 % of control

CC(=O)Cc1cc(=O)n(C2OC(COC(=O)c3ccccc3)C(OC(=O)c3ccccc3)C2OC(=O)c2ccccc2)c(=O)[nH]1 (stereo unspecified)
T/C [6]: 97 % of control
T/C [7]: 97 % of control
T/C [8]: 105 % of control
T/C [9]: 95 % of control
T/C [10]: 100 % of control

O=C(NCc1ccccc1)C(=O)NCc1ccccc1
T/C [11]: 90 % of control
T/C [12]: 87 % of control
T/C [13]: 90 % of control

O=C(O)CCCCCCCCC(=O)O (tested in a mixture with another compound)
T/C [14]: 100 % of control
T/C [3]: 100 % of control
T/C [4]: 102 % of control

CC(=O)OC1C(C)OC(n2ncc(=O)[nH]c2=O)C(OC(C)=O)C1OC(C)=O (stereo unspecified)
T/C [6]: 103 % of control
T/C [7]: 100 % of control
T/C [8]: 103 % of control
T/C [9]: 103 % of control
T/C [10]: 107 % of control

CCOC(=O)C1=C(C)NC(C)=C(C(=O)OCC)C1c1cccc([N+](=O)[O-])c1
T/C [15]: 105 % of control
T/C [16]: 91 % of control

COC(=O)c1cccc(OCC(=O)Nc2ccccc2)c1
T/C [17]: 101 % of control
T/C [18]: 93 % of control
T/C [19]: 92 % of control

N/N=C1\CC2C3CC4(OCCO4)C4C3CC2C14 (stereo unspecified)
T/C [1]: 102 % of control
T/C [2]: 103 % of control

CN(C)Cc1cc(C(C)(C)C)cc(CN(C)C)c1O
T/C (endpoint: mean survival time, dose: 2.5 mg/kg/injection, schedule: Q01DX009 (ip), vehicle: saline with Tween-80): 98 % of control
T/C (endpoint: mean survival time, dose: 5.0 mg/kg/injection, schedule: Q01DX009 (ip), vehicle: saline with Tween-80): 96 % of control
T/C (endpoint: mean survival time, dose: 10.0 mg/kg/injection, schedule: Q01DX009 (ip), vehicle: saline with Tween-80): 95 % of control and 100 % of control

Nc1cc(I)c2cccnc2c1O
T/C (endpoint: mean survival time, dose: 6.25 mg/kg/injection, schedule: Q01DX009 (ip), vehicle: saline): 96 % of control
T/C (endpoint: mean survival time, dose: 12.5 mg/kg/injection, schedule: Q01DX009 (ip), vehicle: saline): 111 % of control
T/C (endpoint: mean survival time, dose: 25.0 mg/kg/injection, schedule: Q01DX009 (ip), vehicle: saline): 100 % of control
T/C [20]: 108 % of control

NC1CCCCC1N.O=C(Nc1ccc2c(O)cc(S(=O)(=O)[O-])cc2c1)c1ccccc1.O=C(Nc1ccc2c(O)cc(S(=O)(=O)[O-])cc2c1)c1ccccc1.[Pt+4]
T/C (endpoint: median survival time, dose: 1.56 mg/kg/injection, schedule: Q04DX003 (ip), vehicle: saline with Tween-80): 166 % of control
T/C (endpoint: median survival time, dose: 3.12 mg/kg/injection, schedule: Q04DX003 (ip), vehicle: saline with Tween-80): 204 % of control and 344 % of control
T/C (endpoint: median survival time, dose: 6.25 mg/kg/injection, schedule: Q04DX003 (ip), vehicle: saline with Tween-80): 289 % of control and 344 % of control
T/C (endpoint: median survival time, dose: 12.5 mg/kg/injection, schedule: Q04DX003 (ip), vehicle: saline with Tween-80): 289 % of control
T/C (endpoint: median survival time, dose: 25.0 mg/kg/injection, schedule: Q04DX003 (ip), vehicle: saline with Tween-80): 91 % of control

CC1(C)CCC2(CC1)CC(=O)OC2=O
T/C [3]: 109 % of control
T/C [4]: 105 % of control
T/C [5]: 100 % of control

C[Si](C)(C)Oc1ccc(OCc2ccccc2)cc1
T/C [21]: 87 % of control
T/C [11]: 87 % of control
T/C [12]: 95 % of control
T/C [13]: 95 % of control

C/C(=C\C(=O)Nc1ccc(S(=O)(=O)F)cc1)c1ccc([N+](=O)[O-])cc1
T/C (endpoint: mean survival time, dose: 25.0 mg/kg/injection, schedule: Q04DX002 (ip), vehicle: saline with Tween-80): 103 % of control and 104 % of control
T/C [21]: 96 % of control and 102 % of control
T/C [17]: 97 % of control
T/C [3]: 104 % of control and 106 % of control
T/C [11]: 100 % of control (2×) and 104 % of control
T/C [22]: 104 % of control
T/C [18]: 92 % of control
T/C [4]: 96 % of control
T/C [12]: 96 % of control and 102 % of control and 107 % of control
T/C [23]: 101 % of control
T/C [19]: 95 % of control
T/C [5]: 96 % of control and 100 % of control
T/C [13]: 98 % of control
T/C [24]: 93 % of control

COc1cccc(CN2CCN(N=O)CC2)c1
T/C (endpoint: mean survival time, dose: 12.5 mg/kg/injection, schedule: Q01DX009 (ip), vehicle: Klucel (hydroxypropylcellulose) (HPC)): 98 % of control
T/C (endpoint: mean survival time, dose: 25.0 mg/kg/injection, schedule: Q01DX009 (ip), vehicle: Klucel (hydroxypropylcellulose) (HPC)): 93 % of control
T/C (endpoint: mean survival time, dose: 50.0 mg/kg/injection, schedule: Q01DX009 (ip), vehicle: Klucel (hydroxypropylcellulose) (HPC)): 103 % of control
T/C [15]: 103 % of control
T/C [16]: 101 % of control
T/C [25]: 93 % of control

OCCNCCO
T/C [3]: 93 % of control
T/C [22]: 97 % of control
T/C [4]: 93 % of control
T/C [23]: 103 % of control
T/C [5]: 96 % of control
T/C [24]: 107 % of control

O=c1nc(Nc2ccccc2)ccn1C1OC(CO)C(O)C1O (stereo unspecified)
T/C [9]: 98 % of control
T/C [10]: 107 % of control
T/C (endpoint: mean survival time, dose: 400.0 mg/kg/injection, schedule: Q01DX005 (ip), vehicle: distilled water + Tween-80): 110 % of control

CC12OCCN1CC(COc1ccccc1)O2 (stereo unspecified)
T/C [22]: 104 % of control
T/C [23]: 98 % of control
T/C [24]: 110 % of control

O=C(NNc1cccc(Cl)c1)C(O)C(O)C(O)C(O)CO (stereo unspecified)
T/C [20]: 93 % of control
T/C (endpoint: mean survival time, dose: 100.0 mg/kg/injection, schedule: Q01DX009 (ip), vehicle: saline): 108 % of control
T/C (endpoint: mean survival time, dose: 200.0 mg/kg/injection, schedule: Q01DX009 (ip), vehicle: saline): 96 % of control

O=[N+]([O-])c1ccc(Cl)c2c([N+](=O)[O-])cccc12
T/C [14]: 100 % of control
T/C [3]: 93 % of control
T/C [4]: 96 % of control

O=C(N/N=C/c1ccccc1)c1cc([N+](=O)[O-])cc([N+](=O)[O-])c1
T/C [15]: 94 % of control
T/C [16]: 100 % of control
T/C [25]: 98 % of control

CCCCCCCC/C=C\CCCCCCCCNP(=O)(OCCCCCCCCCCCC)OCCCCCCCCCCCC
T/C [21]: 93 % of control
T/C [11]: 96 % of control
T/C [12]: 89 % of control
T/C [13]: 100 % of control

NCCc1c[nH]c2ccccc12
T/C [3]: 93 % of control
T/C [4]: 95 % of control
T/C [5]: 98 % of control

CC1(CO)CCCC2(C)C3=CC(=O)CCC3CCC12 (stereo unspecified)
T/C [17]: 95 % of control
T/C [18]: 101 % of control
T/C [19]: 97 % of control
